Source: ChEMBL document CHEMBL4680193, “Isoindoline scaffold-based dual inhibitors of HDAC6 and HSP90 suppressing the growth of lung cancer in vitro and in vivo” (Eur J Med Chem, 2020)
Activity calls are given as the source filed them. The calls are words filed in the database; no cut-off is given here.

How the values were obtained:
Histone deacetylase 8 = molecular target: T1, Histone deacetylase 8 (Homo sapiens, UniProt Q9BY41); assay: Inhibition of recombinant human HDAC8 using RHK-K(Ac)-AMC as substrate by fluorescence based assay
T1 sequence (Q9BY41 whole entry): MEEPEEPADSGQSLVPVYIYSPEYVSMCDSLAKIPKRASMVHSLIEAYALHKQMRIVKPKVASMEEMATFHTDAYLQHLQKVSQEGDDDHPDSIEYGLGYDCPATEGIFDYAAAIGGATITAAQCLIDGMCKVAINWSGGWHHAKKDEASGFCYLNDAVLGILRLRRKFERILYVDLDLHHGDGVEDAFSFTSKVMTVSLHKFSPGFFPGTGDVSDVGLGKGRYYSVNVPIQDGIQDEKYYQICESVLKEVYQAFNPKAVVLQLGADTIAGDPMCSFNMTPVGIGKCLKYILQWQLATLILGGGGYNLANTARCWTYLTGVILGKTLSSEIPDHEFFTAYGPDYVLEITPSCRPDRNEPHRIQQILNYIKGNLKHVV

NCI-H1975 [1] = assay: Antitumor activity against human NCI-H1975 cells xenografted in BALB/c mouse assessed as reduction in tumor volume at 50 mg/kg, ip administered for 2 weeks and measured after 2 week; format: functional, organism-based
NCI-H1975 [2] = assay: cells; format: functional; settings: Homo sapiens, time 48 hrs
NCI-H1975 [3] = assay: Induction of apoptosis in human NCI-H1975 cells assessed as increase in PARP activation incubated for 48 hrs by PI staining based Western blot analysis; format: functional, cell-based; settings: dose 0.1-3 µM
[4] = molecular target: T2, Heat shock protein HSP90 (Homo sapiens) (UniProt P07900+P08238); assay: Inhibition of HSP90 in human NCI-H1975 cells assessed as decrease in STAT3 Tyr705 phosphorylation at 3 uM measured after 12 hrs by Western blot analysis; format: cell-based
[5] = molecular target: T3, Protein deacetylase HDAC6 (Homo sapiens) (UniProt Q9UBN7); assay: Inhibition of HDAC6 in human NCI-H1975 cells assessed as increase in acetylated alpha tubulin level after 24 hrs by Western blot analysis; format: cell-based; settings: dose 0.1-3 µM
T3 sequence (whole entry): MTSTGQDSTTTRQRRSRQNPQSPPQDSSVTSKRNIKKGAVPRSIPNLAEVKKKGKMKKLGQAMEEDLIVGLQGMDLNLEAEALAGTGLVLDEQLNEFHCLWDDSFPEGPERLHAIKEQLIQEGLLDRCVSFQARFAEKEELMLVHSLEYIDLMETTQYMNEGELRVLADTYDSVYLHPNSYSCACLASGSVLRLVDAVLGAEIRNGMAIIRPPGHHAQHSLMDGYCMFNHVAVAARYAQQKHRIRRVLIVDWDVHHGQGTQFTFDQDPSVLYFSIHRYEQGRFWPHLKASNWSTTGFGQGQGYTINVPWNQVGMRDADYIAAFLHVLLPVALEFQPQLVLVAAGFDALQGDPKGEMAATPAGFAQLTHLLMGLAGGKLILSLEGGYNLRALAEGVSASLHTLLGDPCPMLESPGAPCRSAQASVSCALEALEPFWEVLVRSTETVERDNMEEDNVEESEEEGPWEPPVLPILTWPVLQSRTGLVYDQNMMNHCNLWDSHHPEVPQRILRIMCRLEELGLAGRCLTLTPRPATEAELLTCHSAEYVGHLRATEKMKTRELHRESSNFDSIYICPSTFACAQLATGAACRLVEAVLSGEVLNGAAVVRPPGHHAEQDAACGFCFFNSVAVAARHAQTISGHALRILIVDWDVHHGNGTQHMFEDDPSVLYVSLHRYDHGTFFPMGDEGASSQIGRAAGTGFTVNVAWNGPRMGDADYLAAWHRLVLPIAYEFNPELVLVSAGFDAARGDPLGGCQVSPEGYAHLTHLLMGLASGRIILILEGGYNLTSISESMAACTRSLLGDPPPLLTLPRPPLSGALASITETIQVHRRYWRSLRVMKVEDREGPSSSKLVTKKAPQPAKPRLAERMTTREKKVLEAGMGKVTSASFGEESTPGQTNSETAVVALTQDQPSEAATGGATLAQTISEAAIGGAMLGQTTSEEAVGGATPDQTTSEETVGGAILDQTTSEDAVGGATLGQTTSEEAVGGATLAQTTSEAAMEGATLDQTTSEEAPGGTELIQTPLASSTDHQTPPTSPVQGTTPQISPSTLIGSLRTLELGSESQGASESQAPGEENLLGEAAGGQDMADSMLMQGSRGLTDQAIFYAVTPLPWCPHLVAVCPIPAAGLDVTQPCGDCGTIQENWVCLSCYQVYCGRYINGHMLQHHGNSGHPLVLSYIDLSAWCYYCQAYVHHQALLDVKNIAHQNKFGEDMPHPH

Histone deacetylase 3 = Histone deacetylase 3 (Homo sapiens, UniProt O15379)
Chain of Histone deacetylase 3 (O15379 whole entry): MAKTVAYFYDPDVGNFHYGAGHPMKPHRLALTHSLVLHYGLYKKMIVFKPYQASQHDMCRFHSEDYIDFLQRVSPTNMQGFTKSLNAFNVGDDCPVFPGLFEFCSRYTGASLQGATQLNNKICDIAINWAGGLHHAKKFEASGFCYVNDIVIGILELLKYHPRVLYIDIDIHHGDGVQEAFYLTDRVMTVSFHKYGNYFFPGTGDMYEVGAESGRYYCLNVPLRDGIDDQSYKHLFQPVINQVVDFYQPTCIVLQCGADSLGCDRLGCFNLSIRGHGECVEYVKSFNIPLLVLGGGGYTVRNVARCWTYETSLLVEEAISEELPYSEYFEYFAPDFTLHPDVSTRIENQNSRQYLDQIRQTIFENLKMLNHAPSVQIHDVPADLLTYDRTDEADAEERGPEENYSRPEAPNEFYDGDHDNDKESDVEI

NCI-H1975 [6] = assay: Antitumor activity against human NCI-H1975 cells xenografted in BALB/c mouse assessed as reduction in tumor growth at 100 mg/kg, ip administered for 2 weeks and measured after 2 week relative to control; format: functional; settings: 336 h, read-out: TGI
NCI-H1975 [7] = assay: Inhibition of IFN-gamma-induced PD-L1 in human NCI-H1975 cells incubated for 48 hrs by Western blot analysis; format: functional, cell-based; settings: dose 0.3-3 µM
Homo sapiens [8] = species on record: Homo sapiens; assay: Selectivity index, ratio of IC50 for recombinant human HDAC3 to IC50 for recombinant human HDAC6
NCI-H1975 [9] = assay: Induction of apoptosis in human NCI-H1975 cells assessed as increase in caspase 3 activation incubated for 48 hrs by PI staining based Western blot analysis; format: functional, cell-based; settings: dose 0.1-3 µM
Homo sapiens [10] = species on record: Homo sapiens; assay: Selectivity index, ratio of IC50 for recombinant human C-terminal FLAG-His-tagged HDAC1 (1 to 482 residues) expressed in Sf21 cells to IC50 for recombinant human HDAC6
NCI-H1975 [11] = assay: Induction of apoptosis in human NCI-H1975 cells assessed as increase in caspase 9 activation incubated for 48 hrs by PI staining based Western blot analysis; format: functional, cell-based; settings: dose 0.1-3 µM
[12] = molecular target: T4, Protein deacetylase HDAC6 (Homo sapiens, UniProt Q9UBN7); assay: Inhibition of recombinant human HDAC6 using RHK-K(Ac)-AMC as substrate by fluorescence based assay
T4 sequence (Q9UBN7 whole entry): T3 sequence (whole entry)

NCI-H1975 [13] = assay: Induction of cell cycle arrest in human NCI-H1975 cells assessed as increase in subG1 phase at 0.1 to 3 uM incubated for 48 hrs by PI staining based flow cytometry analysis; format: functional; settings: dose 0.1-3 µM
Homo sapiens [14] = species on record: Homo sapiens; assay: Selectivity index, ratio of IC50 for recombinant human HDAC8 to IC50 for recombinant human HDAC6
A549 = assay: Growth inhibition of human A549 cells incubated for 48 hrs by SRB assay; format: functional; settings: Homo sapiens, A549
NCI-H1975 [15] = assay: Induction of apoptosis in human NCI-H1975 cells assessed as increase in gammaH2AX activation incubated for 48 hrs by PI staining based Western blot analysis; format: functional, cell-based; settings: dose 0.1-3 µM
[16] = molecular target: T2, Heat shock protein HSP90 (Homo sapiens); assay: Inhibition of HSP90 in human NCI-H1975 cells assessed as downregulation of Akt expression at 0.03 to 0.3 uM measured upto 24 hrs by Western blot analysis; format: cell-based; settings: dose 0.03-0.3 µM, time hrs <=24

IC50 (Histone deacetylase 8): 3720 nM
GI50 (NCI-H1975 [2]): 520 nM
inhibition [4]: Active
inhibition [5]: Dose-dependent effect
IC50 (Histone deacetylase 3): 1310 nM
Ratio IC50 (Homo sapiens [8]): 303
IC50 [12]: 4.32 nM
Ratio IC50 (Homo sapiens [14]): 861
GI50 (A549): 760 nM
inhibition [16]: Active
Structure (SMILES): CC(C)c1cc(C(=O)N2Cc3ccc(NC(=O)CCCCCCCCC(=O)NO)cc3C2)c(O)cc1O
Activity (NCI-H1975 [1]): Active
Activity (NCI-H1975 [3]): Dose-dependent effect
inhibition in vivo at 100 mg/kg (NCI-H1975 [6]): 69.7%
inhibition (NCI-H1975 [7]): Dose-dependent effect
Activity (NCI-H1975 [9]): Dose-dependent effect
Ratio IC50 (Homo sapiens [10]): 434
Activity (NCI-H1975 [11]): Dose-dependent effect
Activity (NCI-H1975 [13]): Active
Activity (NCI-H1975 [15]): Dose-dependent effect
